{"source": "the NIST ThermoML archive (doi:10.1021/je034290l)", "key": {"[1]": {"test": "xn = mol fraction of the nth substance listed", "settings": "101.32 kPa, Liquid"}, "[2]": {"test": "excess molar enthalpy (molar enthalpy of mixing); xn = mol fraction of the nth substance listed", "settings": "101.32 kPa, Liquid, Calvet calorimetry"}}, "note": "± gives the expanded uncertainty stated by the source.", "data": [{"smiles": "COC(C)=O", "note": "[methyl ethanoate] + CC(C)(C)O", "values": [{"measurement": "excess molar volume", "setting": "[1]; 303.15 K, x1 = 0.0451", "result": "1.65e-07 ± 1.6e-08", "unit": "m3/mol"}, {"measurement": "excess molar volume", "setting": "[1]; 303.15 K, x1 = 0.0901", "result": "3.35e-07 ± 1.7e-08", "unit": "m3/mol"}, {"measurement": "excess molar volume", "setting": "[1]; 303.15 K, x1 = 0.1537", "result": "5.06e-07 ± 1.8e-08", "unit": "m3/mol"}, {"measurement": "excess molar volume", "setting": "[1]; 303.15 K, x1 = 0.1973", "result": "6.07e-07 ± 1.8e-08", "unit": "m3/mol"}, {"measurement": "excess molar volume", "setting": "[1]; 303.15 K, x1 = 0.2481", "result": "7.02e-07 ± 1.9e-08", "unit": "m3/mol"}, {"measurement": "excess molar volume", "setting": "[1]; 303.15 K, x1 = 0.2631", "result": "7.32e-07 ± 1.9e-08", "unit": "m3/mol"}, {"measurement": "excess molar volume", "setting": "[1]; 303.15 K, x1 = 0.3042", "result": "8.09e-07 ± 1.9e-08", "unit": "m3/mol"}, {"measurement": "excess molar volume", "setting": "[1]; 303.15 K, x1 = 0.3448", "result": "8.49e-07 ± 1.9e-08", "unit": "m3/mol"}, {"measurement": "excess molar volume", "setting": "[1]; 303.15 K, x1 = 0.3957", "result": "8.87e-07 ± 2e-08", "unit": "m3/mol"}, {"measurement": "excess molar volume", "setting": "[1]; 303.15 K, x1 = 0.4411", "result": "9.04e-07 ± 2e-08", "unit": "m3/mol"}, {"measurement": "excess molar volume", "setting": "[1]; 303.15 K, x1 = 0.4445", "result": "8.99e-07 ± 2e-08", "unit": "m3/mol"}, {"measurement": "excess molar volume", "setting": "[1]; 303.15 K, x1 = 0.4964", "result": "8.92e-07 ± 2e-08", "unit": "m3/mol"}, {"measurement": "excess molar volume", "setting": "[1]; 303.15 K, x1 = 0.5515", "result": "8.74e-07 ± 2e-08", "unit": "m3/mol"}, {"measurement": "excess molar volume", "setting": "[1]; 303.15 K, x1 = 0.5677", "result": "8.68e-07 ± 2e-08", "unit": "m3/mol"}, {"measurement": "excess molar volume", "setting": "[1]; 303.15 K, x1 = 0.5954", "result": "8.5e-07 ± 1.9e-08", "unit": "m3/mol"}, {"measurement": "excess molar volume", "setting": "[1]; 303.15 K, x1 = 0.6467", "result": "7.94e-07 ± 1.9e-08", "unit": "m3/mol"}, {"measurement": "excess molar volume", "setting": "[1]; 303.15 K, x1 = 0.6956", "result": "7.42e-07 ± 1.9e-08", "unit": "m3/mol"}, {"measurement": "excess molar volume", "setting": "[1]; 303.15 K, x1 = 0.7432", "result": "6.59e-07 ± 1.9e-08", "unit": "m3/mol"}, {"measurement": "excess molar volume", "setting": "[1]; 303.15 K, x1 = 0.8016", "result": "5.54e-07 ± 1.8e-08", "unit": "m3/mol"}, {"measurement": "excess molar volume", "setting": "[1]; 303.15 K, x1 = 0.8477", "result": "4.63e-07 ± 1.8e-08", "unit": "m3/mol"}, {"measurement": "excess molar volume", "setting": "[1]; 303.15 K, x1 = 0.9067", "result": "3.28e-07 ± 1.7e-08", "unit": "m3/mol"}, {"measurement": "excess molar volume", "setting": "[1]; 303.15 K, x1 = 0.9465", "result": "2.17e-07 ± 1.7e-08", "unit": "m3/mol"}, {"measurement": "excess molar volume", "setting": "[1]; 318.15 K, x1 = 0.102", "result": "3.93e-07 ± 1.7e-08", "unit": "m3/mol"}, {"measurement": "excess molar volume", "setting": "[1]; 318.15 K, x1 = 0.165", "result": "5.61e-07 ± 1.8e-08", "unit": "m3/mol"}, {"measurement": "excess molar volume", "setting": "[1]; 318.15 K, x1 = 0.2168", "result": "6.84e-07 ± 1.9e-08", "unit": "m3/mol"}, {"measurement": "excess molar volume", "setting": "[1]; 318.15 K, x1 = 0.2804", "result": "7.71e-07 ± 1.9e-08", "unit": "m3/mol"}, {"measurement": "excess molar volume", "setting": "[1]; 318.15 K, x1 = 0.349", "result": "8.76e-07 ± 2e-08", "unit": "m3/mol"}, {"measurement": "excess molar volume", "setting": "[1]; 318.15 K, x1 = 0.4031", "result": "9.16e-07 ± 2e-08", "unit": "m3/mol"}, {"measurement": "excess molar volume", "setting": "[1]; 318.15 K, x1 = 0.4596", "result": "9.41e-07 ± 2e-08", "unit": "m3/mol"}, {"measurement": "excess molar volume", "setting": "[1]; 318.15 K, x1 = 0.5227", "result": "9.15e-07 ± 2e-08", "unit": "m3/mol"}, {"measurement": "excess molar volume", "setting": "[1]; 318.15 K, x1 = 0.5784", "result": "8.91e-07 ± 2e-08", "unit": "m3/mol"}, {"measurement": "excess molar volume", "setting": "[1]; 318.15 K, x1 = 0.6398", "result": "8.5e-07 ± 1.9e-08", "unit": "m3/mol"}, {"measurement": "excess molar volume", "setting": "[1]; 318.15 K, x1 = 0.6786", "result": "8.06e-07 ± 1.9e-08", "unit": "m3/mol"}, {"measurement": "excess molar volume", "setting": "[1]; 318.15 K, x1 = 0.7422", "result": "7.18e-07 ± 1.9e-08", "unit": "m3/mol"}, {"measurement": "excess molar volume", "setting": "[1]; 318.15 K, x1 = 0.7969", "result": "5.7e-07 ± 1.8e-08", "unit": "m3/mol"}, {"measurement": "excess molar volume", "setting": "[1]; 318.15 K, x1 = 0.8256", "result": "5.31e-07 ± 1.8e-08", "unit": "m3/mol"}, {"measurement": "excess molar volume", "setting": "[1]; 318.15 K, x1 = 0.9077", "result": "3.01e-07 ± 1.7e-08", "unit": "m3/mol"}, {"measurement": "excess molar volume", "setting": "[1]; 318.15 K, x1 = 0.9496", "result": "1.86e-07 ± 1.6e-08", "unit": "m3/mol"}, {"measurement": "excess molar enthalpy", "setting": "[2]; 299.15 K, x1 = 0.0671", "result": "0.528 ± 0.007", "unit": "kJ/mol"}, {"measurement": "excess molar enthalpy", "setting": "[2]; 299.15 K, x1 = 0.1369", "result": "0.997 ± 0.013", "unit": "kJ/mol"}, {"measurement": "excess molar enthalpy", "setting": "[2]; 299.15 K, x1 = 0.2113", "result": "1.43 ± 0.018", "unit": "kJ/mol"}, {"measurement": "excess molar enthalpy", "setting": "[2]; 299.15 K, x1 = 0.2812", "result": "1.75 ± 0.022", "unit": "kJ/mol"}, {"measurement": "excess molar enthalpy", "setting": "[2]; 299.15 K, x1 = 0.3492", "result": "1.97 ± 0.025", "unit": "kJ/mol"}, {"measurement": "excess molar enthalpy", "setting": "[2]; 299.15 K, x1 = 0.4106", "result": "2.11 ± 0.026", "unit": "kJ/mol"}, {"measurement": "excess molar enthalpy", "setting": "[2]; 299.15 K, x1 = 0.4675", "result": "2.17 ± 0.027", "unit": "kJ/mol"}, {"measurement": "excess molar enthalpy", "setting": "[2]; 299.15 K, x1 = 0.4928", "result": "2.19 ± 0.027", "unit": "kJ/mol"}, {"measurement": "excess molar enthalpy", "setting": "[2]; 299.15 K, x1 = 0.5304", "result": "2.19 ± 0.027", "unit": "kJ/mol"}, {"measurement": "excess molar enthalpy", "setting": "[2]; 299.15 K, x1 = 0.5753", "result": "2.16 ± 0.027", "unit": "kJ/mol"}, {"measurement": "excess molar enthalpy", "setting": "[2]; 299.15 K, x1 = 0.6226", "result": "2.09 ± 0.026", "unit": "kJ/mol"}, {"measurement": "excess molar enthalpy", "setting": "[2]; 299.15 K, x1 = 0.6741", "result": "1.96 ± 0.025", "unit": "kJ/mol"}, {"measurement": "excess molar enthalpy", "setting": "[2]; 299.15 K, x1 = 0.7293", "result": "1.78 ± 0.022", "unit": "kJ/mol"}, {"measurement": "excess molar enthalpy", "setting": "[2]; 299.15 K, x1 = 0.7866", "result": "1.54 ± 0.019", "unit": "kJ/mol"}, {"measurement": "excess molar enthalpy", "setting": "[2]; 299.15 K, x1 = 0.8439", "result": "1.22 ± 0.015", "unit": "kJ/mol"}, {"measurement": "excess molar enthalpy", "setting": "[2]; 299.15 K, x1 = 0.9019", "result": "0.841 ± 0.011", "unit": "kJ/mol"}, {"measurement": "excess molar enthalpy", "setting": "[2]; 299.15 K, x1 = 0.9551", "result": "0.447 ± 0.0059", "unit": "kJ/mol"}, {"measurement": "excess molar enthalpy", "setting": "[2]; 318.15 K, x1 = 0.071", "result": "0.472 ± 0.0063", "unit": "kJ/mol"}, {"measurement": "excess molar enthalpy", "setting": "[2]; 318.15 K, x1 = 0.1469", "result": "0.904 ± 0.011", "unit": "kJ/mol"}, {"measurement": "excess molar enthalpy", "setting": "[2]; 318.15 K, x1 = 0.2304", "result": "1.3 ± 0.016", "unit": "kJ/mol"}, {"measurement": "excess molar enthalpy", "setting": "[2]; 318.15 K, x1 = 0.3022", "result": "1.6 ± 0.02", "unit": "kJ/mol"}, {"measurement": "excess molar enthalpy", "setting": "[2]; 318.15 K, x1 = 0.3713", "result": "1.82 ± 0.023", "unit": "kJ/mol"}, {"measurement": "excess molar enthalpy", "setting": "[2]; 318.15 K, x1 = 0.4322", "result": "1.97 ± 0.025", "unit": "kJ/mol"}, {"measurement": "excess molar enthalpy", "setting": "[2]; 318.15 K, x1 = 0.4898", "result": "2.05 ± 0.025", "unit": "kJ/mol"}, {"measurement": "excess molar enthalpy", "setting": "[2]; 318.15 K, x1 = 0.5407", "result": "2.06 ± 0.026", "unit": "kJ/mol"}, {"measurement": "excess molar enthalpy", "setting": "[2]; 318.15 K, x1 = 0.5865", "result": "2.03 ± 0.025", "unit": "kJ/mol"}, {"measurement": "excess molar enthalpy", "setting": "[2]; 318.15 K, x1 = 0.6105", "result": "1.99 ± 0.025", "unit": "kJ/mol"}, {"measurement": "excess molar enthalpy", "setting": "[2]; 318.15 K, x1 = 0.6585", "result": "1.89 ± 0.024", "unit": "kJ/mol"}, {"measurement": "excess molar enthalpy", "setting": "[2]; 318.15 K, x1 = 0.711", "result": "1.73 ± 0.022", "unit": "kJ/mol"}, {"measurement": "excess molar enthalpy", "setting": "[2]; 318.15 K, x1 = 0.7628", "result": "1.54 ± 0.019", "unit": "kJ/mol"}, {"measurement": "excess molar enthalpy", "setting": "[2]; 318.15 K, x1 = 0.817", "result": "1.29 ± 0.016", "unit": "kJ/mol"}, {"measurement": "excess molar enthalpy", "setting": "[2]; 318.15 K, x1 = 0.8636", "result": "1.01 ± 0.013", "unit": "kJ/mol"}, {"measurement": "excess molar enthalpy", "setting": "[2]; 318.15 K, x1 = 0.9085", "result": "0.726 ± 0.0099", "unit": "kJ/mol"}, {"measurement": "excess molar enthalpy", "setting": "[2]; 318.15 K, x1 = 0.9567", "result": "0.372 ± 0.0062", "unit": "kJ/mol"}]}]}
